Data: patent US12331061B2, “Compounds having BET, estrogen receptor, and androgen receptor degradation activity and uses thereof” (ACCUTAR BIOTECHNOLOGY INC., priority 2019, dated 2025)

Key:
Assay in all cases: Degradation of BET proteins in MCF7 cells, Western blot with densitometry
Format in all cases: cell-based
BRD2 = molecular target: T1, BRD2 (Homo sapiens, UniProt P25440); conditions: for degradative activity towards BRD2 over a 24 hour time course: 24 hour time course experiment, shown only in FIG. 1c; for degradative activity towards BRD2: MCF7 cell line, 6 hours after administration, shown only in FIG. 1a, 1b, 2
T1 construct: MCF7 cells were plated in 24-well plates; endogenous in cells; host or cells: MCF7
T1 sequence (P25440 whole entry): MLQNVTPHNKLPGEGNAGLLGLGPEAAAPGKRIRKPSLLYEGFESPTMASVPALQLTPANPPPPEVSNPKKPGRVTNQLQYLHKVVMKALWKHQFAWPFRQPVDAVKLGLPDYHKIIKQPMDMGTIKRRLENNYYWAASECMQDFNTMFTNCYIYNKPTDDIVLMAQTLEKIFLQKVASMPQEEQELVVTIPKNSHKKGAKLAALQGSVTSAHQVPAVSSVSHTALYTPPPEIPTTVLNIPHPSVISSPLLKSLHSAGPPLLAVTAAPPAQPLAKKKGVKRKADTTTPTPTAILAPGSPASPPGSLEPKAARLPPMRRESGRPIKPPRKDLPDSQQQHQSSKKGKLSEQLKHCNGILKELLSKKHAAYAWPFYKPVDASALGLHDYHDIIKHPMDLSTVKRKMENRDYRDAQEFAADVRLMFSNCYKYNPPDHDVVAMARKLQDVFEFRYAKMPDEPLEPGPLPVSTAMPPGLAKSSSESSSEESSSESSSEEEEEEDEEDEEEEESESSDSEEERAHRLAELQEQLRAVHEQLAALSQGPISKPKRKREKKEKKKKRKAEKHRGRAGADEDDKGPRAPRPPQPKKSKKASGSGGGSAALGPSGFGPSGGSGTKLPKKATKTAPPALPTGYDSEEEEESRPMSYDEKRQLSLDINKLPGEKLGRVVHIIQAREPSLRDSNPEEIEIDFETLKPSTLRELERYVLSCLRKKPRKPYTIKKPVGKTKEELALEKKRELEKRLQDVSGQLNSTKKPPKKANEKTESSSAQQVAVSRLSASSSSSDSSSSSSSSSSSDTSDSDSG
Method: (§1) MCF7 cells were plated in 24-well plates at 1.5×10^5 cells/well in DMEM growth medium containing 10% FBS and 1% Penicillin Streptomycin, and incubated overnight at 37° C. The following day, test compound was administered to the cells using 1000× compound stock solution prepared in DMSO at various concentrations. […] Cells were then washed with PBS and protein was collected in Laemmli sample buffer (1×; VWR International). Protein was isolated from cell lysate (approximately 25 μg) by SDS-PAGE and transferred to nitrocellulose membranes. Non-specific binding was blocked by incubating with blocking buffer (5% milk in Tris-buffered saline with 0.1% Tween 20 (“TBS-T”)) at room temperature for 60 minutes. The membrane was then incubated with primary antibodies (rabbit anti-BRD2 (1:1000, Cell Signaling), mouse anti-GAPDH (1:5,000, Santa Cruz), mouse anti-BRD3 (1:500, Abcam) and rabbit anti-BRD4 (1:500, Abcam)) overnight at 4° C., followed by washing (3 times) with TBS-T, and incubation with horseradish peroxidase-conjugated […] IgG (1:5,000, Jackson Immunoresearch) or goat anti-mouse IgG (1:5,000, Jackson Immunoresearch) for 60 minutes. After washing with TBS-T, blots were developed using an enhanced chemiluminescence kit (ThermoFisher Scientific) and the bands were imaged and quantified by densitometry (Bio-Rad).

BRD3 = molecular target: T2, BRD3 (Homo sapiens, UniProt Q15059); conditions: for degradative activity towards BRD3 over a 24 hour time course: 24 hour time course experiment, shown only in FIG. 1c; for degradative activity towards BRD3: MCF7 cell line, 6 hours after administration, shown only in FIG. 1a, 1b, 2
T2 construct: endogenous in cells; host or cells: MCF7
T2 sequence (Q15059 whole entry): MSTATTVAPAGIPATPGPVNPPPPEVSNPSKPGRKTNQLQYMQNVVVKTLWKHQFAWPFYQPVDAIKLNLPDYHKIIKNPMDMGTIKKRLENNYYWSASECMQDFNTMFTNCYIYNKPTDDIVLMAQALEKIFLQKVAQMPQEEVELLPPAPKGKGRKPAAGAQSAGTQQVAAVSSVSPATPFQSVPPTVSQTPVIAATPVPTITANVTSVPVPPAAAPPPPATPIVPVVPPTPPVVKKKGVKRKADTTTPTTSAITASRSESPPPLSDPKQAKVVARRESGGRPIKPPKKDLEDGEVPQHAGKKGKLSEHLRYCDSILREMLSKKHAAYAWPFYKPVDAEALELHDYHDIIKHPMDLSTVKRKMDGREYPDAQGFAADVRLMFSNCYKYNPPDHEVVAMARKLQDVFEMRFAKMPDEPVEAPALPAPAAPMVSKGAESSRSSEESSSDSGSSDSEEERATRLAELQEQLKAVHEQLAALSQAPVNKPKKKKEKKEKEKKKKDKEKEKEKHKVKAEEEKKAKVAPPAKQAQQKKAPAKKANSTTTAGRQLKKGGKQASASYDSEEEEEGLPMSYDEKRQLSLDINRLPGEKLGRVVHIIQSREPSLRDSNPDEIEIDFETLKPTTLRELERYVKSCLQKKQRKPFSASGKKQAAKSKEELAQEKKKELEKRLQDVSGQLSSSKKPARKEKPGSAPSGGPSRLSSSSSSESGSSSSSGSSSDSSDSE
Method: as §1

BRD4 = BRD4 (Homo sapiens, UniProt O60885); set-up: endogenous in cells; host or cells: MCF7; conditions: 24 hour time course experiment; shown only in FIG. 1c
Method: as §1

Cc1sc2c(c1C)C(c1ccc(Cl)cc1)=N[C@@H](CC(=O)NCCCCCCCCCCC(=O)Nc1ccc(CC(=O)NC3CCC(=O)NC3=O)cc1)c1nnc(C)n1-2 (stereo partly drawn) [Compound 253034, 11-(2-((S)-4-(4-chlorophenyl)-2,3,9-trimethyl-6H-thieno[3,2-f][1,2,4]triazolo[4,3-a][1,4]diazepin-6-yl)acetamido)-N-(4-(2-((2,6-dioxopiperidin-3-yl)amino)-2-oxoethyl)phenyl)undecanamide]
degradative activity: degradative activity towards BRD2 over a 24 hour time course (BRD2) | degradative activity towards BRD2 (BRD2) | degradative activity towards BRD3 over a 24 hour time course (BRD3) | degradative activity towards BRD3 (BRD3) | degradative activity towards BRD4 over a 24 hour time course (BRD4)

Cc1sc2c(c1C)C(c1ccc(Cl)cc1)=N[C@@H](CC(=O)NCCCCCCCCCCC(=O)Nc1cccc(CC(=O)NC3CCC(=O)NC3=O)c1)c1nnc(C)n1-2 (stereo partly drawn) [Compound 253035, 11-(2-((S)-4-(4-chlorophenyl)-2,3,9-trimethyl-6H-thieno[3,2-f][1,2,4]triazolo[4,3-a][1,4]diazepin-6-yl)acetamido)-N-(3-(2-((2,6-dioxopiperidin-3-yl)amino)-2-oxoethyl)phenyl)undecanamide]
degradative activity: degradative activity towards BRD2 over a 24 hour time course (BRD2) | degradative activity towards BRD2 (BRD2) | degradative activity towards BRD3 over a 24 hour time course (BRD3) | degradative activity towards BRD3 (BRD3) | degradative activity towards BRD4 over a 24 hour time course (BRD4)
